Data set [1] deals with T1, α-Gal A (Homo sapiens, UniProt P06280).
T1 construct: purchased JCR Pharmaceuticals Co. Ltd, (Japan) JR-051; host or cells: CHO cells
T1 sequence (P06280 32-429): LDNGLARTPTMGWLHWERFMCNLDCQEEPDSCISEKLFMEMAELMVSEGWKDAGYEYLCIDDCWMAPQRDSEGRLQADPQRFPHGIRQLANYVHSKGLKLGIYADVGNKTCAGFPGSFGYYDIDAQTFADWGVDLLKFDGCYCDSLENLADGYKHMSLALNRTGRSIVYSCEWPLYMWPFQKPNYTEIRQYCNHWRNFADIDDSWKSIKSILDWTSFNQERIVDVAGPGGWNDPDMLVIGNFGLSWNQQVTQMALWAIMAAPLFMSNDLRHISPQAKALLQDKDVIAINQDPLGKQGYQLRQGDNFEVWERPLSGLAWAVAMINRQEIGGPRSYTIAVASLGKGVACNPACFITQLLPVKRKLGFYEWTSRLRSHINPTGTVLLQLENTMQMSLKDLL
The experiment in a line: α-Gal A stability in whole blood ex vivo at 37° C. The class given is in vitro ADME. The note with it: 5 nM and 50 nM α-Gal A formulated without DGJ. The method, then: The effect of co-formulating α-Gal A with DGJ on α-Gal A stability in blood ex vivo was examined. Time-dependent loss of α-Gal A activity in whole blood at 37° C. was determined. 5 nM and 50 nM α-Gal A was formulated with or without 10 μM DGJ.

Data set [2] is described as follows: Tissue uptake of α-Gal A (JR-051) in WT mice following single IV infusion. The class given is in vivo. The settings on record: data not shown. The protocol: (§1) Table 1 describes the molar ratios of these compounds:
(§2) Plasma was collected at 0, 15, 30, 45, 60, and 90 min, and 24 hrs post-JR-051. Skin, heart, and kidney were collected 24 hrs post-JR-051. JR-051 plasma levels and tissue uptake were assessed by activity and Western blotting (see Methods section below). A comparison was made between JR-051 administered alone and JR-051 co-formulated with AT1001 groups.
A BCA Protein Assay (Pierce, Rockford, Ill.) was used according to the manufacturer's instructions to determine total protein concentration in tissue lysates. […] For tissue Westerns exactly same procedure was followed as described above for plasma except that 50 μg tissue lysate was used.

Data set [3] relates to R301Q fibroblast cells derived from Fabry patients. The experiment in a line: α-Gal A uptake and GL-3 reduction in R301Q Fabry patient fibroblasts. The class given is cell-based, human. The settings on record: 0.5 nM enzyme co-formulated with 0.1-100 μM DGJ vs alone. The protocol: The effect of co-formulating α-Gal A with DGJ on α-Gal A uptake and GL-3 reduction in R301Q and C52S fibroblast cells derived from Fabry patients was determined. 0.5 nM α-Gal A was tested alone or co-formulated with 0.1, 1.0, 10 or 100 μM DGJ. […] The graph bars represent the average of compiled data from 4 separate experiments.
Further reduction after co-incubation with DGJ is also similar between the two enzymes (˜40-50% of baseline). The graph bars represent the average of compiled data from 4 separate experiments.

For data set [4], the system named is GL-3. Kind of data set: GL-3 reduction in skin, heart and kidney of GLA KO mice, repeat IV bolus administration. The class given is in vivo. The note with it: DGJ 0 mg/kg, 4 biweekly IV bolus. The method, then:
Repeat administration of co-formulated product was tested in fourteen-week old GLA KO mice. The mice received four biweekly (once every two weeks) IV bolus injections of 0.5, 1 or 3 mg/kg α-Gal A (JR-051) alone, or co-formulated with 0.3, 1, 3 or 10 mg/kg of DGJ (AT1001). Plasma and tissue levels of α-Gal A, and tissue levels of GL-3 were measured.
Mouse tissues were homogenized in water (1:16.7 tissue:water) using a Fast Prep homogenizer (Pro Scientific, Thorofare, N.J.). Acetone:methanol (50:50) was added at 5× the volume of the homogenate. Samples were vortexed, re-homogenized in the Fast Prep system, and centrifuged at 10600 g for 10 minutes at room temperature. Each supernatant (200 μL of the upper organic portion) was prepared for solid phase extraction by addition of 200 μL dimethyl sulfoxide (DMSO), 50 μL lactosyl ceramide internal standard (from bovine buttermilk; Matreya, LLC, Pleasant Gap, Pa.) at a final concentration of 1.4 μg/mL, and 600 μL of water:methanol (13:87), followed by vortexing. Solid phase extraction was conducted on a pre-conditioned Bond Elut 40 μm, 100 mg C-18 column (Varian Inc, Palo Alto, Calif.) by washing with 67:23:10 methanol:acetone:water and elution with 1 mL of 9:1 acetone:methanol into silanized glass culture tubes containing 200 μL 0.2 mM sodium acetate in DMSO. Total GL-3 levels were determined from 20 μL of each sample extract by liquid chromatography-tandem mass spectroscopy (LC-MS/MS). LC was conducted using an acetone:methanol:acetonitrile (ACN) with sodium acetate binary mobile phase system (mobile phase A: 40:60 methanol:water with 0.1 mM sodium acetate; mobile phase B: 75:15:10 acetone:methanol:ACN with 0.1 mM sodium acetate) with a flow rate of 0.5 mL/min on a C18 column (Aqua 3 μm 100×3.0 mm, 125 A, Phenomenex, Torrance, Calif.). The final GL-3 elution condition was 90% mobile phase B. MS/MS analysis was carried out under positive ion mode (ESI+) and twelve different isoforms of GL-3 [C16:0, C18:0, C20:0, C22:1, C22:0, C23:0, C22:0(2OH), C24:2, C24:1, C24:0, C24:1(2OH), C24:0(2OH)] as well as internal standard were identified in each sample. The following transitions were monitored: m/z 1046.70→m/z 884.7 for C16:0; m/z 1074.8→m/z 912.8 for C18:0; m/z 1102.8→m/z 940.8 for C20:0; m/z 1128.8→m/z 966.8 for C22:1; m/z 1130.9→m/z 968.8 for C22:0; m/z 1144.9→m/z 982.8 for C23:0; m/z 1146.9→m/z 984.8 for C22:0(2OH); m/z 1154.9→m/z 992.8 for C24:2; m/z 1156.9→m/z 994.8 for C24:1; m/z 1158.9→m/z 996.9 for C24:0; m/z 1172.9→m/z 1010.8 for C24:1(2OH); m/z 1174.9→m/z 1012.8 for C24:0(2OH); and m/z 982.9→m/z 820.8 for the lactosyl ceramide internal standard. For quantitation, the area counts for each isoform were determined and then summed to obtain the total GL-3 area counts. The ratio of the total GL-3 area counts to that of the internal standard was determined and used to calculate the final concentration of GL-3 in each sample based on a linear least squares fit equation applied to an 11-point calibration curve prepared in DMSO. Total GL-3 measurements were normalized to the wet tissue weight of each sample.

A short description of data set [5]: Plasma PK of α-Gal A (JR-051) in WT mice following single IV infusion. The note with it: JR-051 1 mg/kg single IV infusion. The class given is in vivo. The protocol: as §1, §2
Diluted plasma (1:50) in Lysis Buffer (˜10 μg total protein) was subjected to SDS-PAGE on 4-12% polyacrylamide gels (Invitrogen, Grand Island, N.Y.), transferred to nitrocellulose membranes (Invitrogen), and immunoblotted with rabbit anti-human α-Gal A primary antibody (1:2000 dilution; from Shire Pharmaceuticals, Cambridge, Mass.). Protein bands were detected using peroxidase-conjugated goat anti-rabbit secondary antibody (Jackson Immunosearch Labs, West Grove, Pa.) in combination with enhanced chemiluminescence (Pierce, Rockford, Ill.). Blots were scanned on an Image Station 4000R (Kodak, Rochester, N.Y.).

Regarding “JR-051: recombinant human α-Gal A produced in CHO cells transformed with an expression vector encoding the human α-Gal A gene (JCR Pharmaceuticals)”, the “half-life of α-Gal A in whole blood” value in data set [1] lay in the range of 4 to 5 h. The “effect on α-Gal A uptake in skin” value in data set [2] is reported as “no significant effect”. For the same molecule, in data set [3], the “increase of enzyme uptake by DGJ” value is given as “up to 3 fold”. In data set [4] (α-Gal A 0.5 mg/kg), the “GL-3% reduction in heart” value is recorded as 72.1%, the “GL-3% reduction in kidney” value came to 42.7% and the “GL-3% reduction in skin” value came to 85.7%. Moreover, in data set [4] (α-Gal A 1 mg/kg), the “GL-3% reduction in heart” value came out at 82.7%, the “GL-3% reduction in kidney” value is 54.9% and the “GL-3% reduction in skin” value worked out at 90.7%. In addition, in data set [4] (α-Gal A 3 mg/kg), the “GL-3% reduction in heart” value was 93.7%, the “GL-3% reduction in kidney” value stood at 69.5% and the “GL-3% reduction in skin” value was found to be 97.4%. Also, in data set [5], the AUC is 17960 nmol/mL and the T1/2 is 6.6 min.

B1: Fabrazyme: Agalsidase beta, produced by recombinant DNA technology in a Chinese hamster ovary (CHO) cell line; Genzyme Corporation (protein, UniProt P06280 32-429, looked up)
Alpha-galactosidase A: LDNGLARTPTMGWLHWERFMCNLDCQEEPDSCISEKLFMEMAELMVSEGWKDAGYEYLCIDDCWMAPQRDSEGRLQADPQRFPHGIRQLANYVHSKGLKLGIYADVGNKTCAGFPGSFGYYDIDAQTFADWGVDLLKFDGCYCDSLENLADGYKHMSLALNRTGRSIVYSCEWPLYMWPFQKPNYTEIRQYCNHWRNFADIDDSWKSIKSILDWTSFNQERIVDVAGPGGWNDPDMLVIGNFGLSWNQQVTQMALWAIMAAPLFMSNDLRHISPQAKALLQDKDVIAINQDPLGKQGYQLRQGDNFEVWERPLSGLAWAVAMINRQEIGGPRSYTIAVASLGKGVACNPACFITQLLPVKRKLGFYEWTSRLRSHINPTGTVLLQLENTMQMSLKDLL
Turning to B1, the “increase of enzyme uptake by DGJ” value in data set [3] was “up to 4.6 fold”.

Source of the values: US10155027B2, “Alpha-galactosidase A and 1-deoxygalactonojirimycin co-formulation for the treatment of fabry disease” (Amicus Therapeutics, Inc., priority 2012, dated 2018).
